Assay results reported in ChEMBL document CHEMBL1201862, “PubChem BioAssay data set” (2004).
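Following 48 hours of exposure in 96-well plates, responses at five concentrations were used to interpolate endpoints linearly. Abbreviation: GI50, concentration required for 50% inhibition of growth.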 Activity calls are given as the source filed them. Rule as the data show it: active = GI50 up to about 1.1 µM and inactive = higher.

How the values were obtained:
Test in all cases: growth of human tumour cells (NCI), 48 h
[1] = system: SK-MEL-5
[2] = system: OVCAR-3
[3] = system: SK-MEL-28
[4] = system: HCC 2998
[5] = system: SR
[6] = system: UO-31
[7] = system: RPMI-8226
[8] = system: BT-549
[9] = system: UACC-62
[10] = system: HT-29
[11] = system: OVCAR-4
[12] = system: U-251
[13] = system: OVCAR-8
[14] = system: UACC-257
[15] = system: MDA-MB-231
[16] = system: OVCAR-5
[17] = system: DU-145
[18] = system: CAKI-1
[19] = system: HOP-92
[20] = system: SF-539

| Compound | GI50 [1] | GI50 [2] | GI50 [3] | GI50 [4] | GI50 [5] | GI50 [6] | GI50 [7] | GI50 [8] | GI50 [9] | GI50 [10] | GI50 [11] | GI50 [12] | GI50 [13] | GI50 [14] | GI50 [15] | GI50 [16] | GI50 [17] | GI50 [18] | GI50 [19] | GI50 [20] |
| --- | --- | --- | --- | --- | --- | --- | --- | --- | --- | --- | --- | --- | --- | --- | --- | --- | --- | --- | --- | --- |
| Cc1cc(Cl)ccc1/N=N/C(=O)NNc1ccc(Cl)cc1C | 13.9 µM (inactive) | 17.2 µM (inactive) | 16.1 µM (inactive) | 11.5 µM (inactive) | 22.2 µM (inactive) | 13 µM (inactive) | 22.2 µM (inactive) | 15.6 µM (inactive) | 9.04 µM (inactive) | 21.3 µM (inactive) | 17.7 µM (inactive) | 16.4 µM (inactive) | 13 µM (inactive) | 17.1 µM (inactive) | 11.7 µM (inactive) | 15.8 µM (inactive) | 10.7 µM (inactive) | – | – | – |
| COC(=O)C1=COC(C)C2C[n+]3ccc4c([nH]c5ccccc54)c3CC12 (stereo not given) | > 100 µM (inactive) | > 100 µM (inactive) | > 100 µM (inactive) | > 100 µM (inactive) | – | > 100 µM (inactive) | > 100 µM (inactive) | > 100 µM (inactive) | > 100 µM (inactive) | > 100 µM (inactive) | 81.7 µM (inactive) | > 100 µM (inactive) | > 100 µM (inactive) | > 100 µM (inactive) | > 100 µM (inactive) | > 100 µM (inactive) | > 100 µM (inactive) | > 100 µM (inactive) | > 100 µM (inactive) | > 100 µM (inactive) |
| Cc1nc(Cl)c(CBr)c(Cl)n1 | 0.914 µM (active) | 0.596 µM (active) | 1.49 µM (inactive) | 3.64 µM (inactive) | 0.0813 µM (active) | 1.68 µM (inactive) | 0.889 µM (active) | 0.272 µM (active) | 1.38 µM (inactive) | 0.728 µM (active) | 1.83 µM (inactive) | 2.04 µM (inactive) | 1.72 µM (inactive) | 0.832 µM (active) | 1.95 µM (inactive) | 2.05 µM (inactive) | 2.58 µM (inactive) | 2.28 µM (inactive) | – | 1.97 µM (inactive) |
| CCOC(=O)Nc1sc2c(c1C#N)CCCC2 | 71.6 µM (inactive) | > 100 µM (inactive) | > 100 µM (inactive) | > 100 µM (inactive) | 75 µM (inactive) | 27.7 µM (inactive) | 33 µM (inactive) | 49 µM (inactive) | 67.1 µM (inactive) | > 100 µM (inactive) | > 100 µM (inactive) | > 100 µM (inactive) | – | > 100 µM (inactive) | 71.3 µM (inactive) | > 100 µM (inactive) | > 100 µM (inactive) | > 100 µM (inactive) | 47.3 µM (inactive) | – |
| O=C1CN(c2ccccc2)C(=O)CN1CCN1CC(=O)N(c2ccccc2)CC1=O | > 100 µM (inactive) | > 100 µM (inactive) | > 100 µM (inactive) | > 100 µM (inactive) | > 100 µM (inactive) | > 100 µM (inactive) | > 100 µM (inactive) | > 100 µM (inactive) | > 100 µM (inactive) | > 100 µM (inactive) | > 100 µM (inactive) | > 100 µM (inactive) | > 100 µM (inactive) | > 100 µM (inactive) | – | > 100 µM (inactive) | > 100 µM (inactive) | > 100 µM (inactive) | > 100 µM (inactive) | > 100 µM (inactive) |
| COc1ccc(CCN2CCN(CCc3ccc(OC)cc3)CC2)cc1 | > 100 µM (inactive) | > 100 µM (inactive) | > 100 µM (inactive) | > 100 µM (inactive) | – | > 100 µM (inactive) | > 100 µM (inactive) | > 100 µM (inactive) | > 100 µM (inactive) | > 100 µM (inactive) | > 100 µM (inactive) | > 100 µM (inactive) | > 100 µM (inactive) | > 100 µM (inactive) | > 100 µM (inactive) | > 100 µM (inactive) | > 100 µM (inactive) | > 100 µM (inactive) | > 100 µM (inactive) | > 100 µM (inactive) |
| C=C1C(=O)C23CC1CCC2C12CO[C@H](O)[C@H]1C(C)(C)[C@H](OC(C)=O)C[C@H]2OC3=O (stereo not given in full) | 30.8 µM (inactive) | 22.5 µM (inactive) | 17.1 µM (inactive) | 22.6 µM (inactive) | – | 22.9 µM (inactive) | 76.7 µM (inactive) | 9.48 µM (inactive) | 15 µM (inactive) | 13.4 µM (inactive) | > 100 µM (inactive) | 64.1 µM (inactive) | 30.6 µM (inactive) | 30.3 µM (inactive) | 19.8 µM (inactive) | 18.8 µM (inactive) | 25.5 µM (inactive) | 15.2 µM (inactive) | 10.1 µM (inactive) | 20 µM (inactive) |
